Test results as given in patent US20230041996A1, “CALCIUM-SENSING RECEPTOR AGONIST COMPOUND AND APPLICATION THEREOF” (BEIJING TUO JIE BIOPHARMACEUTICAL CO. LTD., priority 2019, published 2023).
Read-outs that look alike come from different tables or passages of the source. Square brackets hold non-standard residues; d marks the D form. Peptide text beside a SMILES is read from it. * marks the point of attachment. Cys(free,S-linked) = N[C@@H](CS*)C(=O)O; d2Thi = N[C@H](Cc1cccs1)C(=O)O; dAbu = CC[C@@H](N)C(=O)O

What was measured:
[1] = system: rat peritoneal mast cells; assay: In vitro histamine release in rat peritoneal mast cells (histamine ELISA); format: cell-based; settings: for histamine release levels in rat peritoneal mast cells in vitro relative to etelcalcetide: 10 μM, comparison with etelcalcetide; for Relative fold of histamine release in vitro: test compound final concentration 10 μM, 15 min at 37° C., relative to PBS buffer (1.00)
Method in brief: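 Rat peritoneal mast cells, washed into HBSS + 25 mM HEPES + 1 mM CaCl2 (pH 7.4), were exposed to test compounds at 10 μM final, 48/80 at 4 μg/mL or vehicle for 15 min at 37° C. Histamine released into the supernatant was quantified by ELISA.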

[2] = molecular target: T1, human calcium-sensing receptor (CaSR) (Homo sapiens, UniProt P41180); assay: Agonist activity on human calcium-sensing receptor (IP-One HTRF in stably transfected HEK293/CaSR cells); format: cell-based
T1 construct: host or cells: HEK293
T1 sequence (P41180 20-1078): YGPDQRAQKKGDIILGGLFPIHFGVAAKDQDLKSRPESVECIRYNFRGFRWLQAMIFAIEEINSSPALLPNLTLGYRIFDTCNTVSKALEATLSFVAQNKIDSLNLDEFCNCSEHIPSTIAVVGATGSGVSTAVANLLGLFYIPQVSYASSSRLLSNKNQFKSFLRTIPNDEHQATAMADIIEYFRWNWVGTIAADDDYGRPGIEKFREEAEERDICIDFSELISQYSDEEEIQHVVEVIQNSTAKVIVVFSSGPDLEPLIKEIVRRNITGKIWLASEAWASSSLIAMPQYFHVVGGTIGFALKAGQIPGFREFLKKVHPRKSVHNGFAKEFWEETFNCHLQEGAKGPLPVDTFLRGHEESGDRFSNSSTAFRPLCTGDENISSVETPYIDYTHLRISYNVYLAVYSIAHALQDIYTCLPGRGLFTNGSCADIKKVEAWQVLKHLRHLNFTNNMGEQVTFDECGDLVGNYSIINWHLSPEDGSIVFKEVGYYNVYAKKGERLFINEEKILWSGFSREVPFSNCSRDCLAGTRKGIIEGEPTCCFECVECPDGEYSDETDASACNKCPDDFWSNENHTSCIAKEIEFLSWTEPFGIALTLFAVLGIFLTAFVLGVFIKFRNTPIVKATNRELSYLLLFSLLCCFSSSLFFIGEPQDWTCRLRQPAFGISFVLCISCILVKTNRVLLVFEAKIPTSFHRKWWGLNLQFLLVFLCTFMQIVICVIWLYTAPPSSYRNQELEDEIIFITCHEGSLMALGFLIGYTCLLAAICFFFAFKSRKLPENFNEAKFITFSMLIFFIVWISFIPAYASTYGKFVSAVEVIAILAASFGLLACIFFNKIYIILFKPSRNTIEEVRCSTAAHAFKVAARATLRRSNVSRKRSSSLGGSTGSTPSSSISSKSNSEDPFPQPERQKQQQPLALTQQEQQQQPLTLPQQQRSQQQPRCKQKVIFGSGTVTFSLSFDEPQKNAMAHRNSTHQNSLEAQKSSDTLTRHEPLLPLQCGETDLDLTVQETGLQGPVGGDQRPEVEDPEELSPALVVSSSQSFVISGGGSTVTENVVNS
Method in brief: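 HEK293 cells stably expressing CaSR stimulated 60 min at 37 °C with compounds in buffer containing 1.2 mM CaCl2, 0.5 mM MgCl2 and 50 mM LiCl. IP-One accumulation measured by HTRF (665/620 nm ratio); EC50 from four-parameter fit.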

5/6 nephrectomized rats = assay: In vivo efficacy in 5/6 nephrectomized rat model after continuous administration (plasma parathyroid hormone, serum calcium)
Excerpt: 3.5.1 Objective: to evaluate the efficacy of some of the compounds disclosed herein in reducing plasma parathyroid hormone level and serum calcium level after continuous administration in a 5/6 nephrectomized rat model.
The rats were adapted. After anesthesia, ⅔ of the left kidney was surgically resected, and after 1 week of recovery, the right kidney was resected to establish the 5/6 nephrectomized rat model. After the second resection, the animals were normally fed for 2 weeks, tested for creatinine (CREA) and plasma parathyroid hormone level, and randomized as per the parathyroid hormone level into 4 groups of 10, including normal saline group, compound 17—low dose group, compound 17—high dose group and etelcalcetide group. After randomization, the normal saline group, compound 17—low dose group, compound 17—high dose group and etelcalcetide group were respectively administered with 1 dose of normal saline, 1 mg/kg of compound 17, 2 mg/kg of compound 17 and 1 mg/kg of etelcalcetide through the tail vein daily for 28 days. During the treatment period, parameters such as animal weight, plasma parathyroid hormone level and serum calcium were detected. The first day of treatment was taken as day 1.

[3] = HEK293/CaSR cells, IP-One production, 60 min at 37° C., CaCl2 1.2 mM, read-out: EC50 for calcium-sensing receptor

SMILES | histamine release levels in rat peritoneal mast cells in vitro relative to etelcalcetide [1] | Relative fold of histamine release in vitro [1] | EC50 [2, 3] | EC50 [2] | plasma parathyroid hormone level compared with the normal saline group (5/6 nephrectomized rats; 1 mg/kg and 2 mg/kg daily via tail vein for 28 days) | suppression of plasma parathyroid hormone level versus etelcalcetide at the same dose (5/6 nephrectomized rats; 1 mg/kg, 6 h and 16 h post-dose, FIG. 4) | serum calcium reduction (5/6 nephrectomized rats; after administration on days 1, 14 and 28) | persistence to reduce serum calcium levels versus etelcalcetide at the same dose (5/6 nephrectomized rats; day 28) | maximal reduction in serum calcium versus etelcalcetide at the same dose (5/6 nephrectomized rats; days 1, 14 and 28, FIG. 5) | extent of serum calcium reduction with the period of treatment (5/6 nephrectomized rats; minimum of serum calcium on days 14 and 28 compared to day 1)
CC[C@@H](NC(=O)[C@@H](CCCNC(=N)N)NC(=O)[C@@H](CCCNC(=N)N)NC(=O)[C@@H](CSSC[C@H](N)C(=O)O)NC(C)=O)C(=O)N[C@H](CCCNC(=N)N)C(=O)N[C@H](CO)C(=O)N[C@H](CCCNC(=N)N)C(N)=O [Compound 31, Ac-c(C)-r-r-(D-Abu)-r-s-r-NH2] (Ac-[dC](Cys(free,S-linked))[dR][dR][dAbu][dR][dS][dR]-NH2) | reduction in histamine release levels | 1.29 | 5.93 µM | – | – | – | – | – | – | –
CC[C@@H](NC(=O)[C@@H](CCCNC(=N)N)NC(=O)[C@@H](CCCNC(=N)N)NC(=O)[C@@H](CSSC[C@H](N)C(=O)O)NC(C)=O)C(=O)N[C@H](CCCNC(=N)N)C(=O)N[C@H](C)C(=O)N[C@H](CCCNC(=N)N)C(N)=O [Compound 17, Ac-c(C)-r-r-(D-Abu)-r-a-r-NH2] (Ac-[dC](Cys(free,S-linked))[dR][dR][dAbu][dR][dA][dR]-NH2) | reduction in histamine release levels | 0.97 | – | 6.28 µM | reduced the plasma parathyroid hormone level in rats in a dose dependent manner | slightly superior or comparable magnitude to that of etelcalcetide | reversible serum calcium reduction | superior and significantly different | comparable to etelcalcetide | did not increase with the period of treatment
CC(=O)N[C@H](CSSC[C@H](N)C(=O)O)C(=O)N[C@H](CCCNC(=N)N)C(=O)N[C@H](CCCNC(=N)N)C(=O)N[C@H](Cc1cccs1)C(=O)N[C@H](CCCNC(=N)N)C(=O)N[C@H](C)C(=O)N[C@H](CCCNC(=N)N)C(N)=O [Compound 13, Ac-c(C)-r-r-(D-2-Thi)-r-a-r-NH2] (Ac-[dC](Cys(free,S-linked))[dR][dR][d2Thi][dR][dA][dR]-NH2) | – | 2.38 | 1.21 µM | – | – | – | – | – | – | –
